According to patent US9896418B2, “Aryl ethers and uses thereof” (Peloton Therapeutics, Inc., priority 2013, dated 2018):

Columns and labels:
786-O-Hif-Luc cells = test: Luciferase Assay; assay type: cell-based; conditions: about 24 hours, read-out: Mean Luciferease EC50
Protocol: A pool of infected cells were then selected against 2 μg/mL of puromycin (P8833, Sigma) for 10 days followed by limited dilution to select single clones.
Each concentration was tested in triplicate. After about 24 hours, luciferase activity was determined using ONE-Glo Luciferase Assay Reagent (E6110, Promega) following the manufacturer's recommended procedure. EC50 were calculated by using Dotmatics software.

[1] = system: HIF-2α HIS TAG-PASB Domain; test: HIF-2α Scintillation Proximity Assay (SPA); assay type: binding
Protocol: The percent inhibition was determined and IC50 values were calculated using the Dotmatics system based on the following equation: % inhibition=[(high control−sample)/(high control−low control)]×100.

For `C[C@H]1C[C@@H](O)c2c(S(=O)(=O)C(F)F)ccc(Oc3cc(F)cc(Cl)c3)c21` (racemic) [Compound 7a], the EC50 (786-O-Hif-Luc cells) was 1000 nM.
`C=CCN=S(=O)(c1ccc(Oc2cc(F)cc(C#N)c2)c2c1[C@H](O)C(F)(F)C2)C(F)(F)F` (single isomer, unassigned) [Compound 307] gave an EC50 (786-O-Hif-Luc cells) of 1700 nM and an IC50 [1] of 370 nM.
In the case of `C=CCN=S(=O)(c1ccc(Oc2cc(F)cc(C#N)c2)c2c1[C@H](O)C(F)(F)C2)C(F)(F)F` (single isomer, unassigned) [Compound 308], the EC50 (786-O-Hif-Luc cells) is reported as 690 nM and the IC50 [1] is reported as 68 nM.
In the case of `N#Cc1cc(F)cc(Oc2ccc(S(=N)(=O)CF)c3c2CC(F)(F)[C@H]3O)c1` (single isomer, unassigned) [Example 275], the EC50 (786-O-Hif-Luc cells) is reported as 260 nM and the IC50 [1] is reported as 76 nM.
In the case of `N#CN=S(=O)(CF)c1ccc(Oc2cc(F)cc(C#N)c2)c2c1[C@H](O)[C@H](F)C2` (single isomer, unassigned) [Example 276], the EC50 (786-O-Hif-Luc cells) is reported as 150 nM and the IC50 [1] is reported as 58 nM.
Compound `N#CN=S(=O)(CF)c1ccc(Oc2cc(F)cc(C#N)c2)c2c1[C@H](O)[C@H](F)C2` (single isomer, unassigned) [Example 277] has an EC50 (786-O-Hif-Luc cells) of 74 nM and an IC50 [1] of 135 nM.
`N#CN=S(=O)(CF)c1ccc(Oc2cc(F)cc(C#N)c2)c2c1[C@H](O)C(F)(F)C2` (single isomer, unassigned) [Example 286] gave an EC50 (786-O-Hif-Luc cells) of 140 nM and an IC50 [1] of 24 nM.
In the case of `O=S(=O)(c1ccc(Oc2cc(F)cc(Cl)c2)c(Br)c1CO)C(F)F` [Compound 74, (2-bromo-3-(3-chloro-5-fluorophenoxy)-6-((difluoromethyl)sulfonyl)phenyl)methanol], the EC50 (786-O-Hif-Luc cells) is reported as 490 nM.
Compound `O=S(=O)(c1ccc(Oc2cc(F)cc(Cl)c2)c(Br)c1)C(F)(F)F` [Compound 116, 2-Bromo-1-(3-chloro-5-fluorophenoxy)-4-((trifluoromethyl)sulfonyl)benzene] has an EC50 (786-O-Hif-Luc cells) of 3500 nM and an IC50 [1] of 150 nM.
In the case of `O=S(=O)(c1ccc(Oc2cc(F)cc(Cl)c2)c(Cl)c1)C(F)(F)F` [Compound 128, 2-Chloro-1-(3-chloro-5-fluorophenoxy)-4-((trifluoromethyl)sulfonyl)benzene], the EC50 (786-O-Hif-Luc cells) is reported as 3000 nM and the IC50 [1] is reported as 150 nM.
Compound `N#Cc1cc(F)cc(Oc2ccc(S(=N)(=O)C(F)(F)F)c3c2CCC3O)c1` (stereo not drawn) [Compound 259, 3-Fluoro-5-((1-hydroxy-7-(S-(trifluoromethyl)sulfonimidoyl)-2,3-dihydro-1H-inden-4-yl)oxy)benzonitrile] has an EC50 (786-O-Hif-Luc cells) of 2000 nM and an IC50 [1] of 1200 nM.
Work on `N#Cc1cc(F)cc(Oc2ccc(S(=O)(=O)C(F)(F)F)c3c2CC(F)C3N)c1` (centres unmarked) [Compound 265, 3-((1-amino-2-fluoro-7-((trifluoromethyl)sulfonyl)-2,3-dihydro-1H-inden-4-yl)oxy)-5-fluorobenzonitrile] yielded an EC50 (786-O-Hif-Luc cells) of 900 nM and an IC50 [1] of 90 nM.
`O=S(=O)(CF)c1ccc(Oc2cncc(Cl)c2)c2c1[C@H](O)C(F)(F)C2` [Example 187, (S)-4-((5-Chloropyridin-3-yl)oxy)-2,2-difluoro-7-((fluoromethyl)sulfonyl)-2,3-dihydro-1H-inden-1-ol] was tested, and the IC50 [1] was 79 nM.
With `CS(=O)(=NC#N)c1ccc(Oc2cc(F)cc(F)c2)c2c1C(O)C(F)(F)C2` (centres unmarked) [Example 191, N-((7-(3,5-difluorophenoxy)-2,2-difluoro-3-hydroxy-2,3-dihydro-1H-inden-4-yl)(methyl)(oxo)-λ^6-sulfanylidene)cyanamide] the IC50 [1] was less than 5 nM.
With `CS(=N)(=O)c1ccc(Oc2cc(F)cc(F)c2)c2c1[C@H](O)C(F)(F)C2` (stereo partly drawn) [Example 192, ((S)-7-(3,5-Difluorophenoxy)-2,2-difluoro-3-hydroxy-2,3-dihydro-1H-inden-4-yl)(imino)(methyl)-λ^6-sulfanone] the IC50 [1] was 180 nM.
Compound `O=S(=O)(c1ccc(Oc2ccc(F)c(Cl)c2)c2c1[C@H](O)C(F)(F)C2)C(F)(F)F` [Example 221, (S)-4-(3-Chloro-4-fluorophenoxy)-2,2-difluoro-7-((trifluoromethyl)sulfonyl)-2,3-dihydro-1H-inden-1-ol] has an IC50 [1] of 29 nM.
`N#Cc1cncc(Oc2ccc(S(=O)(=O)C(F)(F)F)c3c2C[C@@H](F)[C@H]3O)c1` [Example 225, 5-(((1S,2R)-2-Fluoro-1-hydroxy-7-((trifluoromethyl)sulfonyl)-2,3-dihydro-1H-inden-4-yl)oxy)nicotinonitrile] was tested, and the IC50 [1] was less than 5 nM.
Compound `N#Cc1cc(Oc2ccc(S(=O)(=O)C(F)(F)F)c3c2CC(F)(F)[C@H]3O)ccc1F` [Example 228, (S)-5-((2,2-Difluoro-1-hydroxy-7-((trifluoromethyl)sulfonyl)-2,3-dihydro-1H-inden-4-yl)oxy)-2-fluorobenzonitrile] has an IC50 [1] of 40 nM.
Compound `O=S(=O)(c1ccc(Oc2ccc(F)cc2)c2c1[C@H](O)C(F)(F)C2)C(F)(F)F` [Example 230, (S)-2,2-Difluoro-4-(4-fluorophenoxy)-7-((trifluoromethyl)sulfonyl)-2,3-dihydro-1H-inden-1-ol] has an IC50 [1] of 28 nM.
`O=S(=O)(c1ccc(Oc2ccc(F)c(F)c2)c2c1[C@H](O)C(F)(F)C2)C(F)(F)F` [Example 233, (S)-4-(3,4-Difluorophenoxy)-2,2-difluoro-7-((trifluoromethyl)sulfonyl)-2,3-dihydro-1H-inden-1-ol] showed an IC50 [1] of less than 5 nM.
For `N#Cc1cccc(Oc2ccc(S(=O)(=O)C(F)F)c3c2CC(F)(F)[C@H]3O)c1` [Example 236, (S)-3-((7-((difluoromethyl)sulfonyl)-2,2-difluoro-1-hydroxy-2,3-dihydro-1H-inden-4-yl)oxy)benzonitrile], the IC50 [1] was less than 5 nM.
`CS(=O)(=NC#N)c1ccc(Oc2cc(F)cc(C#N)c2)c2c1[C@H](O)C(F)(F)C2` (some centres unmarked) [Example 240] showed an IC50 [1] of 26 nM.
`O=S(=O)(c1ccc(Oc2cc(Cl)c[n+]([O-])c2)c2c1[C@H](O)C(F)(F)C2)C(F)(F)F` [Example 260, (S)-3-Chloro-5-((2,2-difluoro-1-hydroxy-7-((trifluoromethyl)sulfonyl)-2,3-dihydro-1H-inden-4-yl)oxy)pyridine 1-oxide] showed an IC50 [1] of 66 nM.
With `N#Cc1cc(Oc2ccc(S(=O)(=O)C(F)(F)F)c3c2CC(F)(F)[C@H]3O)c[n+]([O-])c1` [Example 267, (S)-3-cyano-5-((2,2-difluoro-1-hydroxy-7-((trifluoromethyl)sulfonyl)-2,3-dihydro-1H-inden-4-yl)oxy)pyridine 1-oxide] the IC50 [1] was 92 nM.
In the case of `CS(=O)(=O)c1ccc(Oc2cc(F)cc(C#N)c2)c2c1[C@H](O)C(F)(Cl)C2` (stereo partly drawn) [Example 270, 3-(((1S)-2-chloro-2-fluoro-1-hydroxy-7-(methylsulfonyl)-2,3-dihydro-1H-inden-4-yl)oxy)-5-fluorobenzonitrile], the IC50 [1] is reported as 97 nM.
`CS(=O)(=O)c1ccc(Oc2cc(F)cc(C#N)c2)c2c1[C@H](O)C(F)(F)[C@@H]2F` [Example 292, 3-fluoro-5-[(1S,3R)-2,2,3-trifluoro-1-hydroxy-7-methylsulfonyl-indan-4-yl]oxy-benzonitrile] showed an IC50 [1] of less than 5 nM.
`CS(=O)(=NC#N)c1ccc(Oc2cc(F)cc(C#N)c2)c2c1[C@H](O)[C@H](F)C2` (stereo partly drawn) [Example 302, N-(((2R,3S)-7-(3-cyano-5-fluorophenoxy)-2-fluoro-3-hydroxy-2,3-dihydro-1H-inden-4-yl)(methyl)(oxo)-λ^6-sulfanylidene)cyanamide] was tested, and the IC50 [1] was 63 nM.
Compound `N#Cc1cncc(Oc2ccc(C(F)(F)F)c3c2CC(F)(F)[C@H]3O)c1` [Example 303, 5-[(1S)-2,2-difluoro-1-hydroxy-7-(trifluoromethyl)indan-4-yl]oxypyridine-3-carbonitrile] has an IC50 [1] of 37 nM.
With `CS(=O)(=O)c1ccc(Oc2cc(F)cc(Br)c2)c2c1[C@H](O)C(F)(F)C2` [Example 304, (S)-4-(3-bromo-5-fluorophenoxy)-2,2-difluoro-7-(methylsulfonyl)-2,3-dihydro-1H-inden-1-ol] the IC50 [1] was less than 5 nM.
Work on `O=S(=O)(c1ccc(Oc2cncc(F)c2)c2c1[C@H](O)C(F)(F)C2)C(F)(F)F` [Example 309, (S)-2,2-difluoro-4-((5-fluoropyridin-3-yl)oxy)-7-((trifluoromethyl)sulfonyl)-2,3-dihydro-1H-inden-1-ol] yielded an IC50 [1] of less than 5 nM.
Work on `O=S(=O)(c1ccc(Oc2cc(F)c[n+]([O-])c2)c2c1[C@H](O)C(F)(F)C2)C(F)(F)F` [Example 310, (S)-3-((2,2-difluoro-1-hydroxy-7-((trifluoromethyl)sulfonyl)-2,3-dihydro-1H-inden-4-yl)oxonio)-5-fluoropyridine 1-oxide] yielded an IC50 [1] of 16 nM.
In the case of `N#Cc1cncc(Oc2ccc(S(=N)(=O)C(F)(F)F)c3c2CC(F)(F)[C@H]3O)c1` (stereo partly drawn) [Example 314, 5-(((1S)-2,2-difluoro-1-hydroxy-7-(S-(trifluoromethyl)sulfonimidoyl)-2,3-dihydro-1H-inden-4-yl)oxy)nicotinonitrile], the IC50 [1] is reported as 25 nM.
For `N#Cc1cncc(Oc2ccc(S(=N)(=O)C(F)(F)F)c3c2CC(F)(F)[C@H]3O)c1` (stereo partly drawn) [Example 315, 5-(((1S)-2,2-difluoro-1-hydroxy-7-(S-(trifluoromethyl)sulfonimidoyl)-2,3-dihydro-1H-inden-4-yl)oxy)nicotinonitrile], the EC50 (786-O-Hif-Luc cells) was 110 nM and the IC50 [1] was 23.2 nM.
Work on “(1R,3S)-4-(3-chloro-5-fluorophenoxy)-3-(hydroxymethyl)-7-((trifluoromethyl)sulfonyl)-2,3-dihydro-1H-inden-1-ol [Compound 281]” yielded an IC50 [1] of 730 nM.
With “[[(1R,3R)-7-(3-cyano-5-fluoro-phenoxy)-1,2,2-trifluoro-3-hydroxy-indan-4-yl]-methyl-oxo-λ^6-sulfanylidene]cyanamide [Compound 320]” the IC50 [1] was 1570 nM.
Compound “[[(1R,3R)-7-(3-cyano-5-fluoro-phenoxy)-1,2,2-trifluoro-3-hydroxy-indan-4-yl]-methyl-oxo-λ^6-sulfanylidene]cyanamide [Compound 322]” has an IC50 [1] of 9800 nM.
